Test results reported in patent publication US20240336610A1, “3CL PROTEASE SMALL-MOLECULE INHIBITOR FOR TREATING OR PREVENTING CORONAVIRUS INFECTION, AND USE THEREOF” (THE GLOBAL HEALTH DRUG DISCOVERY INSTITUTE, priority 2021, published 2024).

Key:
[1] = target: SARS-CoV-2 main protease (3CLpro) (Severe acute respiratory syndrome coronavirus 2 (2019-nCoV) (SARS-CoV-2), UniProt P0DTD1); experiment: Enzyme activity test; format: biochemical; details: 200 nM recombinant SARS-CoV-2 main protease, 15 μM fluorescent substrate, pH 7.3
[2] = Oral pharmacokinetics in rats; format: in vivo; details: rat, blood, male SD rats, 15 mg/kg
Protocol: Test Example 2: Measurement of Oral Pharmacokinetics in Rats
Male SD rats were orally administered with 15 mg/kg of the compound in the examples of the present disclosure, and blood samples were collected at 0.083, 0.25, 0.5, 1, 2, 4, and 8 hours respectively. After the samples were treated with anticoagulant EDTA-K2 and acetonitrile and centrifuged, a drug concentration analysis was conducted using LC/MS/MS.

Q: Which IC50 [1] does the source give for CC(=O)N[C@H](C(=O)N1C[C@H]2[C@@H]([C@H]1C(=O)NC(C#N)c1cncc(-c3cnn(C)c3)c1)C2(C)C)C(C)(C)C (stereo partly drawn) [GDI-030, (1R,2S,5S)-3-((S)-2-acetamido-3,3-dimethylbutyryl)-N-(cyano(5-(1-methyl-1H-pyrazol-4-yl)pyridin-3-yl)methyl)-6,6-dimethyl-3-azabicyclo[3.1.0]hexane-2-carboxamide] here?
A: Its IC50 is 18 nM.

Q: With CC1(C)[C@@H]2[C@@H](C(=O)NC(C#N)c3cncc(Br)c3)N(C(=O)OCc3ccccc3Cl)C[C@@H]21 (stereo partly drawn) [GDI-013, 2-chlorobenzyl((1R,2S,5S)-2-((5-bromopyridin-3-yl)(cyano)methyl)carbamoyl)-6,6-dimethyl-3-azabicyclo[3.1.0]hexane-3-carb oxylate] as the compound, how does the IC50 [1] read?
A: The IC50 was 340 nM.

Q: Which IC50 [1] does the source give for CN(C)c1ccc(S(=O)(=O)N[C@H](C(=O)N2C[C@H]3[C@@H]([C@H]2C(=O)NC(C#N)c2cncc4ccccc24)C3(C)C)C(C)(C)C)cc1 (stereo partly drawn) [GDI-027, (1R,2S,5S)-N-(cyano(isoquinolin-4-yl)methyl)-3-((S)-2-((4-(dimethylamino)phenyl)sulfonamido)-3,3-dimethylbutyryl)-6,6-dimethyl-3-azabicyclo[3.1.0]hexane-2-carboxamide] here?
A: The IC50 was 7.6 nM.

Q: For CN(C)c1ccc(S(=O)(=O)N[C@H](C(=O)N2C[C@H]3[C@@H]([C@H]2C(=O)NC(C#N)c2cncc(Br)c2)C3(C)C)C(C)(C)C)cc1 (stereo partly drawn) [GDI-026, (1R,2S,5S)-N-((5-bromopyridin-3-yl) (cyano)methyl)-3-((S)-2-((4-(dimethylamino)phenyl)sulfonamido)-3,3-dimethylbutanoyl)-6,6-d imethyl-3-azabicyclo[3.1.0]hexane-2-carboxamide], which IC50 [1] is on record?
A: Its IC50 is 17 nM.

Q: With CC(=O)N[C@H](C(=O)N1C[C@H]2[C@@H]([C@H]1C(=O)NC(C#N)c1cncc(-n3cccn3)c1)C2(C)C)C(C)(C)C (stereo partly drawn) [GDI-028, (1R,2S,5S)-N-((5-(1H-pyrazol-1-yl)pyridin-3-yl)(cyano)methyl)-3-((S)-2-acetylamino-3,3-dimethylbutanoyl)-6,6-dimethyl-3-azabi cyclo[3.1.0]hexane-2-carboxamide] as the compound, how does the IC50 [1] read?
A: The IC50 was 2.4 nM.

Q: With CC(=O)N[C@H](C(=O)N1C[C@H]2[C@@H]([C@H]1C(=O)NC(C#N)c1c[nH]c3ccccc13)C2(C)C)C(C)(C)C (stereo partly drawn) [GDI-024, (1R,2S,5S)-3-((S)-2-acetamido-3,3-dimethylbutyryl)-N-(cyano(1H-indol-3-yl)methyl)-6,6-dimethyl-3-azabicyclo[3.1.0]hexane-2-c arboxamide] as the compound, how does the IC50 [1] read?
A: Its IC50 is 66300 nM.

Q: With Cc1ccc(S(=O)(=O)N[C@H](C(=O)N2C[C@H]3[C@@H]([C@H]2C(=O)NC(C#N)c2cncc(Br)c2)C3(C)C)C(C)(C)C)cc1 (stereo partly drawn) [GDI-021, (1R,2S,5S)-N-((5-bromopyridin-3-yl) (cyano)methyl)-3-((S)-3,3-dimethyl-2-((4-methylphenyl)sulfonamido)butanoyl)-6,6-dimethyl-3-azabicyclo[3.1.0]hexane-2-carboxamide] as the compound, how does the IC50 [1] read?
A: Its IC50 is 19 nM.

Q: Which IC50 [1] does the source give for COC(=O)c1cncc(C(C#N)NC(=O)[C@@H]2[C@@H]3[C@H](CN2C(=O)[C@@H](NC(C)=O)C(C)(C)C)C3(C)C)c1 (stereo in doubt) [GDI-034, 5-((1R,2S,5S)-3-((S)-2-acetamido-3,3-dimethylbutyryl)-6,6-dimethyl-3-azabicyclo[3.1.0]hexane-2-carboxamido)(cyano)methyl)methyl nicotinate] here?
A: The IC50 was 62 nM.

Q: Which IC50 [1] does the source give for CNC(=O)c1cncc(C(C#N)NC(=O)[C@@H]2[C@@H]3[C@H](CN2C(=O)[C@@H](NC(C)=O)C(C)(C)C)C3(C)C)c1 (stereo partly drawn) [GDI-018, (1R,2S,5S)-3-((S)-2-acetamido-3,3-dimethylbutyryl)-N(cyano(5-(methylcarbamoyl)pyridin-3-yl)methyl)-6,6-dimethyl-3-azabicycl o[3.1.0]hexane-2-carboxamide] here?
A: Its IC50 is 110 nM.

Q: For CC(=O)N[C@H](C(=O)N1C[C@H]2[C@@H]([C@H]1C(=O)NC(C#N)c1cncc(-c3cn[nH]c3)c1)C2(C)C)C(C)(C)C (stereo partly drawn) [GDI-032, (1R,2S,5S)-N-((5-(1H-pyrazol-4-yl)pyridin-3-yl)(cyano)methyl)-3-((S)-2-acetylamino-3,3-dimethylbutanoyl)-6,6-dimethyl-3-azabi cyclo[3.1.0]hexane-2-carboxamide], which IC50 [1] is on record?
A: Its IC50 is 28 nM.

Q: Which IC50 [1] does the source give for CC(C)(C)[C@H](NS(=O)(=O)C(F)(F)F)C(=O)N1C[C@H]2[C@@H]([C@H]1C(=O)NC(C#N)c1cncc(Br)c1)C2(C)C (stereo partly drawn) [GDI-025, (1R,2S,5S)-N-((5-bromopyridin-3-yl) (cyano)methyl)-3-((S)-3,3-dimethyl-2-((trifluoromethyl)sulfonamido)butanoyl)-6,6-dimethyl-3-azabicyclo[3.1.0]hexane-2-carboxamide] here?
A: The IC50 was 19 nM.

Q: With CC(=O)N[C@H](C(=O)N1C[C@H]2[C@@H]([C@H]1C(=O)NC(C#N)c1cncc(-c3ccn[nH]3)c1)C2(C)C)C(C)(C)C (stereo partly drawn) [GDI-035, (1R,2S,5S)-N-((5-(1H-pyrazol-5-yl)pyridin-3-yl)(cyano)methyl)-3-((S)-2-acetylamino-3,3-dimethylbutanoyl)-6,6-dimethyl-3-azabi cyclo[3.1.0]hexane-2-carboxamide] as the compound, how does the IC50 [1] read?
A: Its IC50 is 17 nM.

Q: For CC(=O)N[C@H](C(=O)N1C[C@H]2[C@@H]([C@H]1C(=O)NC(C#N)c1cncc3c(F)cccc13)C2(C)C)C(C)(C)C (stereo partly drawn) [GDI-033, (1R,2S,5S)-3-((S)-2-acetamido-3,3-dimethylbutyryl)-N-(cyano(8-fluoroisoquinolin-4-yl)methyl)-6,6-dimethyl-3-azabicyclo[3.1.0]h exane-2-carboxamide], which IC50 [1] is on record?
A: The IC50 was 56 nM.

Q: With Cc1ccc(S(=O)(=O)N[C@H](C(=O)N2C[C@H]3[C@@H]([C@H]2C(=O)NC(C#N)c2cncc4ccccc24)C3(C)C)C(C)(C)C)cc1 (stereo partly drawn) [GDI-023, (1R,2S,5S)-N-(cyano(isoquinolin-4-yl)methyl)-3-((S)-3,3-dimethyl-2-((4-methylphenyl)sulfonamido)butanoyl)-6,6-dimethyl-3-azabic yclo[3.1.0]hexane-2-carboxamide] as the compound, how does the IC50 [1] read?
A: Its IC50 is 15 nM.

Q: For CN(C)c1ccc(S(=O)(=O)N[C@H](C(=O)N2C[C@H]3[C@@H]([C@H]2C(=O)NC(C#N)c2cncc(C(F)(F)F)c2)C3(C)C)C(C)(C)C)cc1 (stereo partly drawn) [GDI-019, (1R,2S,5S)-N-(cyano(5-(trifluoromethyl)pyridin-3-yl)methyl)-3-((S)-2-((4-(dimethylamino)phenyl)sulfonamido)-3,3-dimethylbutanoyl) -6,6-dimethyl-3-azabicyclo[3.1.0]hexane-2-carboxamide], which IC50 [1] is on record?
A: Its IC50 is 22 nM.

Q: For CC(C)(C)[C@H](NS(=O)(=O)C(F)(F)F)C(=O)N1C[C@H]2[C@@H]([C@H]1C(=O)NC(C#N)c1cncc3ccccc13)C2(C)C (stereo partly drawn) [GDI-029, (1R,2S,5S)-N-(cyano(isoquinolin-4-yl)methyl)-3-((S)-3,3-dimethyl-2-((trifluoromethyl)sulfonamido)butanoyl)-6,6-dimethyl-3-azabic yclo[3.1.0]hexane-2-carboxamide], which IC50 [1] is on record?
A: The IC50 was 23 nM.

Q: Which results are given for CC(C)(C)[C@H](NC(=O)C(F)(F)F)C(=O)N1C[C@H]2[C@@H]([C@H]1C(=O)NC(C#N)c1cncc(C(F)(F)F)c1)C2(C)C (stereo partly drawn) [GDI-012, (1R,2S,5S)-N-(cyano (5-(trifluoromethyl)pyridin-3-yl)methyl)-3-((S)-3,3-dimethyl-2-(2,2,2-trifluoroacetylamino)butyryl)-6,6-dimethyl-3-azabicyclo[3.1.0]hexane-2-carboxamide]?
A: IC50 [1]: 24 nM; AUC(0-inf) [2]: 7140 ng·h/mL; AUC(0-t) [2]: 7080 ng·h/mL; Cmax [2]: 2120 ng/mL; half-life [2]: 1.92 h

Q: Which IC50 [1] does the source give for CC(=O)N[C@H](C(=O)N1C[C@H]2[C@@H]([C@H]1C(=O)NC(C#N)c1cncc(-c3nc(C)no3)c1)C2(C)C)C(C)(C)C (stereo partly drawn) [GDI-015, (1R,2S,5S)-3-((S)-2-acetamido-3,3-dimethylbutyryl)-N-(cyano(5-(3-methyl-1,2,4-oxadiazol-5-yl)pyridin-3-yl)methyl)-6,6-dimethy 1-3-azabicyclo[3.1.0]hexane-2-carboxamide] here?
A: Its IC50 is 120 nM.

Q: With CC(=O)N[C@H](C(=O)N1C[C@H]2[C@@H]([C@H]1C(=O)NC(C#N)c1cnc3[nH]ccc3c1)C2(C)C)C(C)(C)C (stereo partly drawn) [GDI-020, (1R,2S,5S)-3-((S)-2-acetamido-3,3-dimethylbutyryl)-N(cyano(1H-pyrrole[2,3-b]pyridin-5-yl)methyl)-6,6-dimethyl-3-azabicyclo[3. 1.0]hexane-2-carboxamide] as the compound, how does the IC50 [1] read?
A: The IC50 was 19 nM.

Q: For CC(=O)N[C@H](C(=O)N1C[C@H]2[C@@H]([C@H]1C(=O)NC(C#N)c1cncc(-c3nc(C(C)C)no3)c1)C2(C)C)C(C)(C)C (stereo partly drawn) [GDI-031, (1R,2S,5S)-3-((S)-2-acetamido-3,3-dimethylbutyryl)-N-(cyano(5-(3-isopropyl-1,2,4-oxadiazol-5-yl)pyridin-3-yl)methyl)-6,6-dimet hyl-3-azabicyclo[3.1.0]hexane-2-carboxamide], which IC50 [1] is on record?
A: The IC50 was 100 nM.

Q: For CC(=O)N[C@H](C(=O)N1C[C@H]2[C@@H]([C@H]1C(=O)NC(C#N)c1cncc(Br)c1C)C2(C)C)C(C)(C)C (stereo partly drawn) [GDI-009, (1R,2S,5S)-3-((S)-2-acetamido-3,3-dimethylbutyryl)-N-((5-bromo-4-methylpyridin-3-yl)(cyano)methyl)-6,6-dimethyl-3-azabicycl o[3.1.0]hexane-2-carboxamide], which IC50 [1] is on record?
A: Its IC50 is 53 nM.

Q: Which IC50 [1] does the source give for CC(C)(C)[C@H](NC(=O)C(F)(F)F)C(=O)N1C[C@H]2[C@@H]([C@H]1C(=O)NC(C#N)c1cncc(C#N)c1)C2(C)C (stereo partly drawn) [GDI-014, (1R,2S,5S)-N-(cyano(5-cyanopyridin-3-yl)methyl)-3-((S)-3,3-dimethyl-2-(2,2,2-trifluoroacetylamino)butyryl)-6,6-dimethyl-3-azabicycl o[3.1.0]hexane-2-carboxamide] here?
A: The IC50 was 46 nM.

Q: What about the AUC(0-inf) [2] of the same compound?
A: Its AUC(0-inf) is 7820 ng·h/mL.

Q: And the AUC(0-t) [2]?
A: Its AUC(0-t) is 7800 ng·h/mL.

Q: What about the Cmax [2] of the same compound?
A: Its Cmax is 5000 ng/mL.

Q: And the half-life [2]?
A: Its half-life is 0.832 h.
